# “Also recorded” adds a separate entry of the source. Like-named read-outs stand apart in the source and are kept apart here.
# Experiments:
# [1] = system: tobacco shoots (control and transgenic plant B-7); test: Resistance of tobacco shoots to aminoethylcysteine (AEC); format: in vivo; settings: 0.1 and 0.15 mM AEC in MS medium; transgenic B-7 (E. coli DHPS) vs control
# Description: To test whether the transgenic tobacco plants expressing the E. coli DHPS gene were more resistant to the lysine analog AEC compared to control nontransformed plants, shoots from control plants (FIG. 21, left) and from transgenic tobacco plant B-7 (FIG. 21, right) were dipped in MS medium containing 2 mg/l kinetin, 0.8 mg/l IAA and either 0, 0.1, 0.15 or 0.2 mM AEC.
# plant DHPSs = settings: plant DHPS; read-out: I50 of plant DHPSs, lysine; cited from earlier work
# E. coli DHPS [2] = test: DHPS activity (O-ABA assay) with increasing lysine, leaf extracts of transgenic tobacco expressing E. coli DHPS; format: biochemical; settings: transgenic vs wild type/control plants
# Description: (§1) Transgenic plants were screened for an elevated DHPS activity. DHPS activity was assayed in crude extracts from leaves of transgenic plants by the O-amino-benzaldehyde (O-ABA) assay of Yugari and Gilvarg (Yugari Y. and Gilvarg C., (1965) J. Biol. Chem. 240: 4710-4716) with slight modifications. Leaves from axenic tobacco plants grown in culture were homogenized with a mortar and pestle in an equal volume of cold 100 mM Tris-HCl pH 7.5 containing 1 mM phenylmethylsulfonylfluoride and 0.5 μg/ml leupeptine. Following 5 min centrifugation (16,000 xg, 4° C.) the supernatant was collected and its protein concentration was determined by the method of Bradford.
# (§2) DHPS activity was assayed as above but in the presence of increasing lysine concentrations. At each lysine concentration, DHPS activity is presented as a percentage of the activity in extracts with no lysine added (average of two plants for each transformation). (Control)--nontransformed plants; (Cytoplasm)--average DHPS activity of plants A-11 and A-22 containing the cytoplasmic-type E. coli DHPS; (Chloroplast)--average DHPS activity of plants B-7 and B-15 containing the chloroplastic-type E. coli DHPS. The elevated levels of DHPS activity in the transgenic plants clearly resulted from the expression of the E. coli enzyme in them. […] In contrast, the I50 for DHPS inhibition by lysine in the control nontransformed plants was 27 μM.
# [3] = molecular target: T1, E. coli mutated, desensitized AK (Escherichia coli, UniProt P08660); test: AK activity with lysine and/or threonine, leaf extracts of transgenic plant E-6; format: biochemical; settings: 10 mM lysine, threonine or both; transgenic plant E-6 (mutant bacterial enzyme)
# T1 construct: transgenic tobacco plant E-6, crude leaf extract
# Description: (§3) Transgenic plants were screened for an elevated AK activity. AK activity was assayed in crude extracts from leaves of transgenic plants by the method of Black and Wright (Black, S., et al. (1955) J. Biol. Chem. 213: 27-38). Leaves from axenic tobacco plants grown on Nitsch minimal medium (Nitsch, J. P. (1969) Phytomorphology 19: 389-404) in Magenta boxes for about one month were homogenized with a mortar and pestle in an equal volume of cold 20 mM potassium phosphate buffer pH 7.0 containing 30 mM β-mercaptoethanol, 0.1 mM L-lysine, 0.1 mM L-threonine, 1 mM phenylmethylsulfonilfluoride and 0.5 mM leupeptin. Following 5 min centrifugation (16,000 .g, 4° C.) the supernatant was collected and its protein concentration was determined by the method of Bradford (Bradford, M. M. (1976) Anal. Biochem. 72: 248-254). Equal amounts of protein were then tested for AK activity. […] The reaction mixture was stopped by addition of 0.25 ml of a 1:1:1 mixture of 10% FeCl3 in 0.1M HCl, 3M HCl and 12% TCA, centrifuged and the optical absorbance of the supernatant at 490 nm was measured.
# (§4) AK activity was measured in crude extracts prepared from tobacco leaves as above except that 10 mM lysine, threonine or both amino acids were present in the reaction mixture as indicated on the right. […]
# DHPS = molecular target: T2, DHPS (Nicotiana tabacum, UniProt Q42948); test: DHPS activity (O-ABA assay) with increasing lysine, leaf extracts of control nontransformed tobacco; format: biochemical
# T2 construct: from tissue; host or cells: leaves of nontransformed tobacco (crude extract)
# T2 sequence (Q42948 34-359): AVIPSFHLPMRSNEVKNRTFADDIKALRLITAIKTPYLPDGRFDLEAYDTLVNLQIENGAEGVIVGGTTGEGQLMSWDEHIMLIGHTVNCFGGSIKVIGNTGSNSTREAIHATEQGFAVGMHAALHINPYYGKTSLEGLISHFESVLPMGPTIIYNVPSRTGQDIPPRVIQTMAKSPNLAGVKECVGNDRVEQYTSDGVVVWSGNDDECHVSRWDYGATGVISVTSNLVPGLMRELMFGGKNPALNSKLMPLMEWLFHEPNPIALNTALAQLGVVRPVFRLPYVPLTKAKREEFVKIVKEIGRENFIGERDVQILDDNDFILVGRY
# Description: as §1, §2
# E. coli DHPS [4] = molecular target: T3, E. coli DHPS (Escherichia coli, UniProt P0A6L2); test: DHPS activity (O-ABA assay) with increasing lysine, leaf extracts of transgenic tobacco expressing E. coli DHPS; format: biochemical; set-up: pea rbcS-3A chloroplast transit peptide (chloroplastic type only; absent in the cytoplasmic type) (N); expressed in transfected cells; host or cells: transgenic tobacco plants (crude leaf extract; A-11 and A-22 cytoplasmic type, B-7 and B-15 chloroplastic type)
# Description: as §1, §2
# E. coli DHPS [5] = molecular target: T3, E. coli DHPS; settings: cited from earlier work
# [6] = system: nontransformed tobacco leaf AK; test: AK activity with lysine and/or threonine, leaf extracts of nontransformed tobacco; format: biochemical; settings: 10 mM lysine, threonine or both; nontransformed (wild type) tobacco leaf extract
# Description: as §3, §4
# T1 sequence (P08660 2-449, change not shown): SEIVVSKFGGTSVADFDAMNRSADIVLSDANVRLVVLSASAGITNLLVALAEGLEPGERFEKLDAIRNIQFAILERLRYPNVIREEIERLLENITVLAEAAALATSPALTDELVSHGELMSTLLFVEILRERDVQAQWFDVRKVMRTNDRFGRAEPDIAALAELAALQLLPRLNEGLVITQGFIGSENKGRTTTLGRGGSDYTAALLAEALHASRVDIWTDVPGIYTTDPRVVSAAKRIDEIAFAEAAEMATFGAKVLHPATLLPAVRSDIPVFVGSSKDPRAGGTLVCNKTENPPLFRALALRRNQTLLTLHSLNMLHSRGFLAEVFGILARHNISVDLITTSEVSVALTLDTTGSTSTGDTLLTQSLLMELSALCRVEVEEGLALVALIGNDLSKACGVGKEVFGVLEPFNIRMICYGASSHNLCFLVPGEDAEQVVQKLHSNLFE
# T3 sequence (P0A6L2 whole entry): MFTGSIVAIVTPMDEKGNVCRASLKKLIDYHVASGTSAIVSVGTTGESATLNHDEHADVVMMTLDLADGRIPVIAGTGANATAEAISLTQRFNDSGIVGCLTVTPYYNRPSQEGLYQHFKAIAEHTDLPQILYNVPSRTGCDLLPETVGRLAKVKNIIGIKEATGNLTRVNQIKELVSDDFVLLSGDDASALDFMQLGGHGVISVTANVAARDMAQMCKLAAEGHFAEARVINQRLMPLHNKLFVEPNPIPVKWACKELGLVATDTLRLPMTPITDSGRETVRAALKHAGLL
SMILES,growth of transgenic shoots compared with control in AEC medium [1],IC50 (plant DHPSs),sensitivity of DHPS activity in transgenic plants to lysine inhibition compared with control plants (E. coli DHPS [2]),inhibition of AK activity [3],IC50 (DHPS),"inhibition at 1000 µM (E. coli DHPS [4]; 1 mM lysine, read-out: inhibition of bacterial DHPS)","IC50 (E. coli DHPS [4]; transgenic tobacco plants, crude leaf extract, read-out: I50 for DHPS inhibition by lysine)","IC50 (E. coli DHPS [5]; read-out: I50 of E. coli DHPS, lysine, E. coli DHPS)","IC50 (E. coli DHPS [5]; read-out: of E. coli DHPS, lysine inhibition, E. coli DHPS (dapA))",inhibition of AK activity [6]
"NCCSC[C@H](N)C(=O)O [AEC, S-(2-aminoethyl)-L-cysteine]",the transgenic plant clearly grows better than the control; also recorded: much less sensitive,,,,,,,,,
NCCCC[C@H](N)C(=O)O [lysine],,10 to 50 µM,less sensitive to lysine inhibition; also recorded: much more resistant to feedback inhibition,completely resistant; also recorded: completely unaffected,27 µM,~50%,1600 µM,~1000 µM,1000 µM,
C[C@@H](O)[C@H](N)C(=O)O [threonine],,,,completely resistant; also recorded: completely unaffected,,,,,,70%

# — patent US5367110A, “Transgenic plants overproducing threonine and lysine” (Yeda Research and Development Co. Ltd., priority 1990, dated 1994)
